Literature values in article doi:10.1101/2023.04.08.536135v1 (bioRxiv, 2023).

System: IDE

bradykinin (RPPGFSPFR; Bradykinin; UniProt P01042 381-389, looked up)
rate of degradation by IDE relative to that of insulin: at least 20 fold
